# Laboratory results taken from patent publication US10253045B2, “Crystalline forms of a therapeutic compound and uses thereof” (Kala Pharmaceuticals, Inc., priority 2014, dated 2019).
# What was measured:
# [1] = Thermodynamic aqueous solubility; format: physicochemical; conditions: for Equilibrated form in suspension: XRPD of equilibrated solids after the solubility measurement in water, ambient temperature
# Description: The thermodynamic solubility values of Compound 5 using Crystalline Forms I and II as starting forms were determined in water. In one vial, 10 mg of Crystalline Form I of Compound 5 and 1 mL of water were stirred at ambient temperature for 24 hours at 400 RPM. In a separate vial, 10 mg of Crystalline Form II of Compound 5 was suspended in 1 mL of water, and then the suspension was stirred at ambient temperature for 48 hours at 200 RPM. The equilibrated solids were then separated by dispensing 500 μL of the suspension into a 1.5-mL centrifuge tube, and then centrifuged for 5 minutes at 13,200 RPM using an Eppendorf 5415D centrifuge. As much of the supernatant as possible was decanted using a Pasteur pipette and dispensed into a new 1.5-mL centrifuge tube. The samples were again centrifuged for 5 minutes at 13,200 RPM using the same instrument. The Compound 5 content and pH values of the supernatant were determined by HPLC and pH meter, respectively. The pH of the supernatant was determined to be 9.16.
# [2] = Wet milling to nanocrystals: particle size and crystal form stability (XRPD); format: physicochemical; conditions: XRPD of milled samples compared with neat form
# Description: Crystalline Forms of Compound 5 were wet-milled in the presence of stabilizers that enable the preparation of mucus-penetrating particles (MPP) or nanocrystals. The same milling process was employed for all samples. Milling media, specifically 0.5 mL bulk volume of 1-mm ceria-stabilized zirconium oxide beads, was added to a glass vial. Approximately 25 mg of Compound 5 Crystalline Form I or Crystalline Form II and 0.475 mL of milling solution, as specified in each example, were then added to the vial yielding a slurry of 5% Compound 5. A magnetic stir bar was used to agitate the beads, stirring at approximately 500 rpm.
# Neat Crystalline Form I of Compound 5 synthesized according to Example 1 was wet-milled in the presence of PLURONIC® F127 (also known as Poloxamer 407) or polyvinyl alcohol with an average MW of 31 kDa and average hydrolysis of 88% (PVA), and a buffer.
# Loss of crystallinity and possible form change to amorphous and Crystalline Form II occurred during milling.
# Neat Crystalline Form II of Compound 5 prepared in accordance with Example 2 was wet-milled the presence of PLURONIC® F127 (also known as Poloxamer 407) and a buffer.
# Approximately 100 μL of Sample A was transferred directly onto the surface of the sample XRPD holder, then was allowed to air dry.
Compound,Equilibrated form in suspension [1],Equilibrated form in suspension ([1]; listed as I),"solubility ([1]; water, 22 °C, pH 9.16, water, thermodynamic from solid, ambient temperature (ca. 22° C.), 10 mg in 1 mL stirred 24 h (Form I) or 48 h (Form II), supernatant pH 9.16, HPLC) [µg/mL]",Stability of crystalline form to the milling process ([2]; listed as Crystalline Form I of Compound 5),"Solubility in Water ([1]; water, ambient temperature (ca. 22° C.), 10 mg in 1 mL stirred 24 h (Form I) or 48 h (Form II), supernatant pH 9.16, HPLC) [µg/mL]",Stability of crystalline form to the milling process ([2]; listed as Crystalline Form II of Compound 5)
"Cc1cc(C(=O)Nc2cc(Oc3ccc4nc(NC(=O)CCCN5CCC6(CC5)COC6)cn4n3)ccc2C)n(C)n1 [Crystalline Form I, N-(5-((2-(4-(2-oxa-7-azaspiro[3.5]nonan-7-yl)butanamido)imidazo[1,2-b]pyridazin-6-yl)oxy)-2-methylphenyl)-1,3-dimethyl-1H-pyrazole-5-carboxamide]",converted to amorphous,Amorphous,27.8,not stable to the milling process,,
"Cc1cc(C(=O)Nc2cc(Oc3ccc4nc(NC(=O)CCCN5CCC6(CC5)COC6)cn4n3)ccc2C)n(C)n1 [Crystalline Form II, N-(5-((2-(4-(2-oxa-7-azaspiro[3.5]nonan-7-yl)butanamido)imidazo[1,2-b]pyridazin-6-yl)oxy)-2-methylphenyl)-1,3-dimethyl-1H-pyrazole-5-carboxamide]",stable,,,,15.76,stable to the milling process
